Measured values reported in US9771589B2, “Treating hepatitis virus infection by modulating microRNAs miR-130a, miR-130b, miR-204, or miR-1236” (priority 2013, dated 2017).

Legend:
NF-κB/p65 = NF-κB/p65 protein level, Western blot; format: cell-based, human; conditions: stable miR-130a expressing HepG2 cells
HBV = HBV DNA replication after cotransfection/treatment, Southern blot; format: cell-based, hepatitis B virus (HBV ayw)
Description: The methods to construct the miRNA expression vectors are as detailed elsewhere. Chen, H. L. et al. PloS one 7, e34116 (2012). PCR products were sub-cloned from TA cloning vector (RBC) to pSuper (OligoEngine, Inc) by Hind III digestion. All plasmids were confirmed by sequencing. Approximately 8-400 fold higher level of microRNA expression was detected by transfection and stem loop RT-PCR analysis. […] The PPARγ and PGC1α expression vectors were from GeneCopoeia.
Human hepatoma Huh7 and HepG2 cells were maintained as described previously Chua, P. K., et al. Journal of virology 84, 2340-2351 (2010), Le Pogam, S., et al., Journal of virology 79, 1871-1887 (2005). In general, the phenotype of viral replication and the effect of microRNA are stronger in HepG2 than Huh7 cells. However, Huh7 cells are easier to passage and transfect. Therefore, we used these two cell lines interchangeably.
Rosiglitazone and GW9662 were from Sigma. HepG2 and Huh7 cells were seeded in 6-well tissue culture plates at 5×10, Quasdorff, M. et al. Journal of viral hepatitis 17, 527-536 (2010) cells/well. At 24 h post-transfection, Rosiglitazone or GW9662 in 0.1% DMSO was added to medium. Culture medium was changed ever two days before harvest.
HBV core particle-associated DNA, total cellular cytoplasmic RNA, and microRNA were analyzed by Northern blot as described previously. […]

HepG2 cells = experiment: Measurement of glucose production in cell culture; format: cell-based, human
Description: The glucose level of HBV transgenic mice was measured using a kit of DRI-CHEM SLIDE GLU-PIII (FUJIFILM, JAPAN). Ten microliters of mouse serum was deposited on a FUJI DRI-CHEM SLIDE GLU-PIII. Glucose oxidase (GOD) catalyzes the oxidization of sample glucose to generate hydrogen peroxide which then reacts with dye precursors and forms red dye. The optical reflection density was measured at 505 nm by the FUJI DRI-CHEM analyzer and converted into the glucose concentration […]. For the measurement of glucose concentration in cell culture, HBV producing cells (HepG2 and Q7 cells) were treated with PPARγ antagonist, GW9662 at indicated concentrations. Twenty-four hours before glucose measurement, the medium was replaced with 1 ml of glucose-free DMEM, supplemented with 2 mM sodium pyruvate. After 16 hrs incubation, 50 μl of medium was collected and the glucose concentration (mM) was measured using the glucose colorimetric assay (Biovision).

[1] = tested on: SP1, PPAR α, CEBPb, and HNF4; experiment: Expression of other hepatic transcription factors in miR-130a expressing cell lines; format: cell-based, human
Description: (§1) Briefly, 2 μg of total RNA was reverse transcribed into cDNA using random primers and High Capacity cDNA Reverse Transcription kit (Applied Biosystem) at 37° C. for 120 minutes. The cDNA product was then diluted 100 times for real-time PCR analysis using Power SYBR Green PCR master mix (Applied Biosystem), and the default condition in a 20 μl reaction volume by Applied Biosystems 7500 Real-Time PCR System. Data were analyzed by relative quantification methods (ΔΔCt methods) using 7500 software V2.0.1.
(§2) Approximately one million Huh7 and HepG2 cells were transiently transfected by 3 μg plasmid DNA (pSuper and pSuper-miR-130a) with Polyjet (SignaGen), followed by G418 selection for three weeks. The G418-resistant colonies were pooled together.

glucokinase (GCK) = experiment: GCK expression in stable miR-130a expressing cells; format: cell-based, human
Description: (§3) Anti-HBc (Dako), anti-PPARγ (Santa Cruz), anti-GAPDH, anti-PKLR, anti-G6Pase, anti-tubulin, anti-PGC1α (Origene), anti-PCK1 (Abnova), anti-GCK (Biovision), Secondary antibodies include mouse anti-rabbit-HRP, goat anti-mouse-HRP (GeneTex, Taiwan) and donkey anti-goat-HRP (Santa Cruz).
as §1, §2

[2] = tested on: HBV pregenomic RNA (pgRNA); experiment: HBV RNA in transfected cells, Northern blot; format: cell-based, hepatitis B virus (HBV ayw); conditions: HepG2, total cytoplasmic RNA of cotransfected culture
Description: HBV core particle-associated DNA, total cellular cytoplasmic RNA, and microRNA were analyzed by Northern blot as described previously. Chua, P. K., et al. Journal of virology 84, 2340-2351 (2010), Le Pogam, S., et al., Journal of virology 79, 1871-1887 (2005).

[3] = tested on: HBV core protein (HBc), surface antigen (HBsAg) and e antigen (HBeAg); experiment: HBV protein expression (HBc Western blot; HBsAg, HBeAg ELISA); format: cell-based, hepatitis B virus (HBV ayw)
Description: as §3
Chua, P. K., et al. Journal of virology 84, 2340-2351 (2010),

HBV enhancer II = experiment: HBV enhancer/promoter luciferase reporter assay; format: cell-based, hepatitis B virus; conditions: Huh7 cells, pGL3/enhII reporter
Description: (§4) Assay for 3′ UTR or enhancer/promoter was as described previously. Chen, H. L., et al., PloS one 7, e34116 (2012).

[4] = tested on: HBV 3′ UTR (nt 1521-2122); experiment: 3′ UTR luciferase reporter assay with HBV nt 1521-2122; format: cell-based, hepatitis B virus (HBV ayw); conditions: Huh7 cells, cotransfection with miRNA expression vector
Description: as §4

3′ UTR of PGC1α = experiment: 3′UTR luciferase reporter assay, PGC1α; format: cell-based, human; conditions: reporter cotransfection assay
Description: as §4
(§5) An upstream fragment of the miR-130a precursor (−750 to −1 nt), containing putative binding sites for NF-κB/p65, Egr-1, and CREB, was amplified by PCR from human HepG2 genomic DNA. The PCR products were separated by agarose gel electrophoresis, and the isolated DNA fragments were then cloned into the restriction enzyme digested pGL3 Basic Vector (Promega, Madison, Wis.) containing a firefly luciferase reporter (New England Biolab, Ipswich, Mass.). Various promoter deletion plasmids, containing shorter fragments upstream from the miR-130a precursor, were derived from the full-length promoter plasmid by PCR amplification and cloning using various PCR primers (Table 1 above). All the promoter plasmids were confirmed by sequencing. HuH-7 cells were transfected with promoter deletion plasmids for 48 hrs and firefly luciferase activities were then measured and normalized to each cotransfected renilla luciferase level. The full-length 3′UTRs of PPARγ, PGC1α and SP1 were amplified from genomic DNA of HepG2 cells using their respective forward and reverse primers (Table 1), and cloned into a psiCHECK-2 luciferase vector (Promega, Madison, Wis.) (Shih, C. et al. Virology 179, 871-873 (1990)). […]

3′ UTR of PPARγ = experiment: 3′UTR luciferase reporter assay, PPARγ; format: cell-based, human; conditions: reporter cotransfection assay
Description: as §4, §5

[5] = HBV-transfected Huh7 cells, increasing concentration of compound

Compound: miR-130a: human microRNA, CAGUGCAAUGUUAAAAGGGCAU (SEQ ID NO:1); given as pSuper expression vector or stable expression
- NF-κB/p65 protein level (NF-κB/p65): increased significantly
- HBV DNA replication (HBV; HepG2 cells cotransfected with HBV DNA, Southern blot): inhibits HBV DNA replication
- glucose level (HepG2 cells; control versus miR-130a producing cells): No significant difference in glucose level
- expression levels of most hepatic transcription factors examined [1]: remained unchanged
- GCK mRNA expression (glucokinase (GCK); miR-130a expressing hepatocytes, RT-qPCR): increased mRNA expression
- GCK protein expression (glucokinase (GCK); stable miR-130a expressing HepG2 or Huh7 cells, Western blot): not reduced but increased
- level of HBV pregenomic RNA (pgRNA) [2]: reduced the level of HBV pregenomic RNA
- HBV protein expression (HBc, HBsAg, HBeAg) ([3]; HepG2 cells): reduce HBV protein expression
- secretion of HBsAg and HBeAg ([3]; media of HepG2 cotransfected with HBV DNA, ELISA): reduces the secretion of HBsAg and HBeAg
- luciferase activity driven by HBV enhancer-II (HBV enhancer II): reduced the luciferase activity driven by HBV enhancer-II
- luciferase activity, wild type HBV 3′UTR reporter [4]: no appreciable effect
- luciferase activity, reporter with 3′UTR of PGC1α (3′ UTR of PGC1α): significantly reduced the luciferase activity
- luciferase activity, reporter with 3′UTR of PPARγ (3′ UTR of PPARγ): significantly reduced the luciferase activity

Compound: O=C(Nc1ccccc1)c1cc([N+](=O)[O-])ccc1Cl [GW9662, reference compound]
- HBV replication (HBV; [5]): significantly reduced
- glucose level (HepG2 cells; HepG2 cells treated with GW9662 (20 uM), irrespective of HBV-producing status): further increased
- HBV protein expression (secreted HBsAg and HBeAg) [3, 5]: significantly reduced
